Measured values reported in PubChem BioAssay (NCI).
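Abbreviation: GI50, concentration required for 50% inhibition of growth. TGI marks complete inhibition of growth.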

Legend:
Experiment in all cases: NCI-60 cell line screen, 384-well format
SF-539 CNS = system: SF-539 CNS
OVCAR-4 ovarian = system: OVCAR-4 ovarian
OVCAR-8 ovarian = system: OVCAR-8 ovarian
NCI-H460 NSCLC = system: NCI-H460 NSCLC
PC-3 prostate = system: PC-3 prostate
HL-60(TB) leukemia = system: HL-60(TB) leukemia
OVCAR-5 ovarian = system: OVCAR-5 ovarian
SF-268 CNS = system: SF-268 CNS
786-0 renal = system: 786-0 renal
UACC-257 melanoma = system: UACC-257 melanoma
BT-549 breast = system: BT-549 breast
T-47D breast = system: T-47D breast
HT29 colon = system: HT29 colon
A549 NSCLC = system: A549 NSCLC
NCI-H23 lung = system: NCI-H23 lung
M14 melanoma = system: M14 melanoma
CAKI-1 renal = system: CAKI-1 renal
DU-145 prostate = system: DU-145 prostate
TK-10 renal = system: TK-10 renal
SN12C renal = system: SN12C renal
LOX IMVI melanoma = system: LOX IMVI melanoma
MCF7 breast = system: MCF7 breast
NCI-H522 lung = system: NCI-H522 lung
SW-620 colon = system: SW-620 colon
SK-OV-3 ovarian = system: SK-OV-3 ovarian
U251 glioblastoma = system: U251 glioblastoma
MDA-MB-468 breast = system: MDA-MB-468 breast
COLO 205 colon = system: COLO 205 colon
HOP-92 NSCLC = system: HOP-92 NSCLC
UO-31 renal = system: UO-31 renal
NCI-H322M lung = system: NCI-H322M lung
HOP-62 NSCLC = system: HOP-62 NSCLC
SK-MEL-5 melanoma = system: SK-MEL-5 melanoma
UACC-62 melanoma = system: UACC-62 melanoma
IGROV1 ovarian = system: IGROV1 ovarian
SNB-75 CNS = system: SNB-75 CNS
EKVX NSCLC = system: EKVX NSCLC
SR leukemia = system: SR leukemia
MDA-MB-231 breast = system: MDA-MB-231 breast
SK-MEL-28 melanoma = system: SK-MEL-28 melanoma
KM12 colon = system: KM12 colon
ACHN renal = system: ACHN renal
RXF 393 renal = system: RXF 393 renal
SNB-19 CNS = system: SNB-19 CNS
OVCAR-3 ovarian = system: OVCAR-3 ovarian
SF-295 CNS = system: SF-295 CNS
MALME-3M melanoma = system: MALME-3M melanoma

N#Cc1cnc(Nc2cc(NC[C@H]3CNCCO3)c(C(F)(F)F)cn2)cn1
GI50 (SF-539 CNS): 380 nM
TGI (SF-539 CNS): 1180 nM
GI50 (OVCAR-4 ovarian): 1860 nM
TGI (OVCAR-4 ovarian): 34.4 µM
GI50 (OVCAR-8 ovarian): 1660 nM
TGI (OVCAR-8 ovarian): 22.2 µM
GI50 (NCI-H460 NSCLC): 8.14 µM
TGI (NCI-H460 NSCLC): 21 µM
GI50 (PC-3 prostate): 16.4 µM
TGI (PC-3 prostate): 40.3 µM
GI50 (HL-60(TB) leukemia): 625 nM
TGI (HL-60(TB) leukemia): 1760 nM
GI50 (OVCAR-5 ovarian): 17.1 µM
TGI (OVCAR-5 ovarian): 43.9 µM
GI50 (SF-268 CNS): 14.4 µM
TGI (SF-268 CNS): 30.1 µM
GI50 (786-0 renal): 1590 nM
TGI (786-0 renal): 15.2 µM
GI50 (UACC-257 melanoma): 17.6 µM
TGI (UACC-257 melanoma): 31.8 µM
GI50 (BT-549 breast): 377 nM
TGI (BT-549 breast): 1710 nM
GI50 (T-47D breast): 25.4 µM
TGI (T-47D breast): 51.3 µM
GI50 (HT29 colon): 20.6 µM
TGI (HT29 colon): > 74.7 µM
GI50 (A549 NSCLC): 21.5 µM
TGI (A549 NSCLC): > 100 µM
GI50 (NCI-H23 lung): 508 nM
TGI (NCI-H23 lung): 12.3 µM
GI50 (M14 melanoma): 292 nM
TGI (M14 melanoma): 785 nM
GI50 (CAKI-1 renal): 12.2 µM
TGI (CAKI-1 renal): 53.8 µM
GI50 (DU-145 prostate): 5.48 µM
TGI (DU-145 prostate): 19.4 µM
GI50 (TK-10 renal): 1140 nM
TGI (TK-10 renal): 10.2 µM
GI50 (SN12C renal): 18.3 µM
TGI (SN12C renal): 38.5 µM
GI50 (LOX IMVI melanoma): 14.9 µM
TGI (LOX IMVI melanoma): 32.6 µM
GI50 (MCF7 breast): 728 nM
TGI (MCF7 breast): 20.7 µM
GI50 (NCI-H522 lung): 13.6 µM
TGI (NCI-H522 lung): 26.9 µM
GI50 (SW-620 colon): 16.8 µM
TGI (SW-620 colon): 39.4 µM
GI50 (SK-OV-3 ovarian): 2330 nM
TGI (SK-OV-3 ovarian): 11 µM
GI50 (U251 glioblastoma): 17.4 µM
TGI (U251 glioblastoma): 39.7 µM
GI50 (MDA-MB-468 breast): 13.9 µM
TGI (MDA-MB-468 breast): 27.2 µM
GI50 (COLO 205 colon): 15.3 µM
TGI (COLO 205 colon): 34.4 µM
GI50 (HOP-92 NSCLC): 504 nM
TGI (HOP-92 NSCLC): 9.53 µM
GI50 (UO-31 renal): 588 nM
TGI (UO-31 renal): > 100 µM
GI50 (NCI-H322M lung): 9.8 µM
TGI (NCI-H322M lung): 32.4 µM
GI50 (HOP-62 NSCLC): 3.75 µM
TGI (HOP-62 NSCLC): 16.8 µM
GI50 (SK-MEL-5 melanoma): 2970 nM
TGI (SK-MEL-5 melanoma): 16 µM
GI50 (UACC-62 melanoma): 7.66 µM
TGI (UACC-62 melanoma): 21 µM
GI50 (IGROV1 ovarian): 9.13 µM
TGI (IGROV1 ovarian): 47.6 µM
GI50 (SNB-75 CNS): 14.7 µM
TGI (SNB-75 CNS): 27.9 µM
GI50 (EKVX NSCLC): 14.5 µM
TGI (EKVX NSCLC): 34 µM
GI50 (SR leukemia): 57.2 nM
TGI (SR leukemia): 186 nM
GI50 (MDA-MB-231 breast): 16.8 µM
TGI (MDA-MB-231 breast): 42.3 µM
GI50 (SK-MEL-28 melanoma): 18.1 µM
TGI (SK-MEL-28 melanoma): 35.6 µM
GI50 (KM12 colon): 1670 nM
TGI (KM12 colon): 18 µM
GI50 (ACHN renal): 305 nM
TGI (ACHN renal): 1220 nM
GI50 (RXF 393 renal): 272 nM
TGI (RXF 393 renal): 715 nM
GI50 (SNB-19 CNS): 9.81 µM
TGI (SNB-19 CNS): 62.7 µM
GI50 (OVCAR-3 ovarian): 9.42 µM
TGI (OVCAR-3 ovarian): 25.4 µM
GI50 (SF-295 CNS): 946 nM
TGI (SF-295 CNS): 4.12 µM
GI50 (MALME-3M melanoma): 7.25 µM
TGI (MALME-3M melanoma): 22.9 µM
